From the supplement of paper PMC10307832

How the values were obtained:
Assay in all cases: relative viability (nuclei count vs DMSO), 5 days (fraction); higher = more cells survive
FH535 = compound: CC1=C(C=CC(=C1)[N+](=O)[O-])NS(=O)(=O)C2=C(C=CC(=C2)Cl)Cl [FH535]
How it was run: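 Five library-drug doses, separated by factors of √10, were pinned into 1536-well plates holding lung cancer cell lines after an overnight stay at 37 °C. Cells were fixed, permeabilised and Hoechst-stained in one step after 5 days without medium change, then imaged at 4×. Viability compares treated-well with vehicle-well nuclei, counted in MetaXpress, as a median across plates. Passing plates had control CV below 25% and at least one doubling.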

FH535 + Foretinib = compound: CC1=C(C=CC(=C1)[N+](=O)[O-])NS(=O)(=O)C2=C(C=CC(=C2)Cl)Cl [FH535] + COc1cc2c(Oc3ccc(NC(=O)C4(C(=O)Nc5ccc(F)cc5)CC4)cc3F)ccnc2cc1OCCCN1CCOCC1 [Foretinib] (partner 0.25 µM)
How it was run: (§1)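 One day after seeding in 1536-well plates, lung cancer cell lines were dosed by pin tool. Dosing was either single-drug or a fixed anchor-drug dose plus five library-drug doses (not always all listed) in √10 steps. After 5 days, nuclei were stained in one fix-and-stain step and counted on 4× images, and relative viability is the nuclei count of treated wells over that of vehicle wells, given as the median of duplicate plates.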

FH535 + Phenformin = compound: CC1=C(C=CC(=C1)[N+](=O)[O-])NS(=O)(=O)C2=C(C=CC(=C2)Cl)Cl [FH535] + N=C(N)NC(=N)NCCc1ccccc1 [Phenformin] (partner 250 µM)
How it was run: as §1

FH535 + Linsitinib = compound: CC1=C(C=CC(=C1)[N+](=O)[O-])NS(=O)(=O)C2=C(C=CC(=C2)Cl)Cl [FH535] + C[C@]1(O)C[C@@H](c2nc(-c3ccc4ccc(-c5ccccc5)nc4c3)c3c(N)nccn32)C1 [Linsitinib] (partner 1 µM)
How it was run: as §1

FH535 + Crizotinib = compound: CC1=C(C=CC(=C1)[N+](=O)[O-])NS(=O)(=O)C2=C(C=CC(=C2)Cl)Cl [FH535] + C[C@@H](Oc1cc(-c2cnn(C3CCNCC3)c2)cnc1N)c1c(Cl)ccc(F)c1Cl [Crizotinib] (partner 1 µM)
How it was run: as §1

Cell Line	relative viability (FH535; 0.04 µM)	relative viability (FH535; 0.1265 µM)	relative viability (FH535; 0.4 µM)	relative viability (FH535; 1.265 µM)	relative viability (FH535 + Foretinib; first compound 0.04 µM)	relative viability (FH535 + Foretinib; first compound 0.1265 µM)	relative viability (FH535 + Foretinib; first compound 0.4 µM)	relative viability (FH535 + Foretinib; first compound 1.265 µM)	relative viability (FH535 + Phenformin; first compound 0.04 µM)	relative viability (FH535 + Phenformin; first compound 0.1265 µM)	relative viability (FH535 + Phenformin; first compound 0.4 µM)	relative viability (FH535 + Phenformin; first compound 1.265 µM)	relative viability (FH535 + Linsitinib; first compound 0.04 µM)	relative viability (FH535 + Linsitinib; first compound 0.1265 µM)	relative viability (FH535 + Linsitinib; first compound 0.4 µM)	relative viability (FH535 + Linsitinib; first compound 1.265 µM)	relative viability (FH535 + Crizotinib; first compound 0.04 µM)	relative viability (FH535 + Crizotinib; first compound 0.1265 µM)	relative viability (FH535 + Crizotinib; first compound 0.4 µM)	relative viability (FH535 + Crizotinib; first compound 1.265 µM)
NCI-H460	0.997	1.03	0.935	0.699	1.05	1.05	0.937	0.654	0.517	0.535	0.399	0.244	0.902	0.891	0.791	0.678	1.04	0.991	1.08	0.652
HOP-62	0.89	0.919	0.93	0.853	1.06	1.04	1.03	0.933	0.682	0.668	0.552	0.401	1.01	1.09	1.07	0.713	0.953	1.01	0.69	0.988
SK-LU-1	1.03	1.02	0.945	0.758	0.834	0.805	0.822	0.662	0.563	0.622	0.491	0.305	1.06	1.17	1.16	0.678	1.15	0.793	0.849	0.703
LCLC-103H	0.919	1.03	0.901	0.753	0.789	0.755	0.776	0.551	0.326	0.286	0.255	0.262	1.06	1.09	1.21	0.868	1.04	1.11	1.02	0.844
NCI-H1915	0.863	1.03	0.906	0.792	1.11	1.08	1.01	0.738	0.339	0.385	0.309	0.292	1.08	1.12	1.08	0.896	0.907	0.871	0.867	0.688
PC-3 [JPC-3]	0.971	1.04	0.906	0.621	1	1	0.879	0.582	0.448	0.405	0.37	0.372	0.982	0.924	0.891	0.676	0.957	0.981	0.885	0.531
SW 1573	0.908	1.01	0.899	0.836	0.784	0.944	1.01	0.89	0.387	0.372	0.307	0.163	0.621	0.785	0.855	0.703	0.64	0.751	0.865	0.683
NCI-H1437	0.976	0.934	0.731	0.422	1.27	1.21	0.924	0.425	0.289	0.309	0.29	0.171	1.02	0.962	0.879	0.421	0.9	0.831	0.772	0.344
NCI-H1734	0.724	1.07	0.945	0.821	–	0.91	0.886	0.773	–	0.394	0.373	0.269	0.838	0.939	0.876	0.866	0.625	0.691	0.648	0.588
LK-2	0.919	0.983	0.996	1.17	1.23	1.33	1.39	1.11	0.35	0.521	0.495	0.211	0.477	0.487	0.673	0.561	0.224	0.236	0.252	0.226
HCC-15	0.928	0.998	0.841	0.786	0.988	1.06	0.965	0.639	0.432	0.443	0.343	0.213	0.879	0.862	0.884	0.595	0.798	0.819	0.747	0.52
HCC-366	1	1.05	0.973	0.992	0.648	1.06	0.958	0.516	0.607	0.522	0.48	0.41	0.578	0.852	0.514	0.465	0.392	0.614	0.594	0.354
NCI-H661	1	1.01	0.955	0.637	1.01	0.947	0.92	0.671	0.302	0.294	0.276	0.234	0.521	0.537	0.539	0.493	1.08	0.955	0.931	0.797
NCI-H2405	0.922	0.967	0.882	0.713	1.01	1.07	0.967	0.761	0.395	0.378	0.344	0.331	0.848	1.01	0.953	0.76	0.816	0.854	0.805	0.725
LXF-289	0.99	0.989	0.913	0.851	0.975	0.983	0.862	0.684	0.474	0.486	0.472	0.384	0.949	0.938	0.897	0.697	0.795	0.832	0.74	0.567
BEN	0.92	0.946	0.862	0.653	0.595	0.932	0.723	0.328	0.231	0.25	0.263	0.221	0.811	0.976	0.918	0.508	0.813	0.859	0.792	0.535
NCI-H2023	0.901	1.06	0.988	0.841	0.876	0.995	0.699	0.743	0.384	0.375	0.314	0.191	0.677	0.631	0.745	0.629	0.761	0.639	0.676	0.723
NCI-H727	0.699	0.814	0.706	0.797	1.04	0.637	0.925	0.684	0.56	0.509	0.363	0.305	0.367	0.192	0.293	0.216	0.917	0.848	0.823	0.783
NCI-H1355	0.942	0.981	0.917	0.681	1.03	1	0.904	0.582	0.425	0.42	0.353	0.269	0.745	0.822	0.78	0.633	0.929	1.14	0.977	0.555
COR-L 105	0.882	1.08	0.76	0.82	0.936	1.25	0.794	1.02	0.411	0.461	0.405	0.382	0.903	0.933	0.894	0.91	0.751	0.885	0.792	0.86
NCI-H2228	0.884	1.01	0.985	0.896	0.752	0.87	0.707	0.936	0.241	0.377	0.288	0.224	0.88	0.668	0.611	0.385	0.523	0.606	0.486	0.388
PC-14	1.01	1.06	0.989	0.955	1.03	1.06	0.982	1.02	0.571	0.708	0.516	0.331	0.996	0.937	0.959	0.851	0.94	0.917	0.863	0.889
EMC-BAC-2	0.808	0.953	0.913	0.839	0.978	0.97	0.997	0.809	0.416	0.554	0.46	0.359	0.822	0.873	0.771	0.753	0.766	0.799	0.739	0.677
LU99A	0.812	0.973	0.854	0.811	0.706	0.865	0.736	0.761	0.55	0.856	0.764	0.729	0.385	0.546	0.532	0.571	0.508	0.598	0.604	0.584
RERF-LC-KJ	0.947	0.998	0.962	0.808	0.927	0.895	0.869	0.787	0.38	0.429	0.406	0.308	0.872	0.896	0.854	0.752	0.856	0.826	0.86	0.671
NCI-H647	0.872	1.05	0.906	0.801	1.14	1.22	1.13	1.14	0.524	0.508	0.431	0.42	1.09	1.11	1.17	0.912	1.26	1.02	1.1	0.895
LCLC-97TM1	0.809	0.913	0.844	0.913	0.854	0.949	1.03	0.679	0.409	0.37	0.334	0.313	–	0.202	0.204	0.185	–	0.583	0.322	0.296
